Where a name gives a salt, the structure may show the parent alone.
What was measured:
[1] = target: T1, G12C K-Ras4B (1-169) (Homo sapiens, UniProt P01116, G12C); assay: Test of compounds to determine whether they bind to KRASG12C (LC-MS compound binding rate); details: final compound concentration of 2 μM, 1 μM protein, 25° C. for 2 hours
T1 construct: G12C K-Ras4B (1-169)
Description: Test Example 1: A Test of Compounds to Determine Whether they Bind to KRASG12C
Test compounds were prepared in the form of a 10 mM DMSO solution.
Wt K-Ras4B (1-169) and G12C K-Ras4B (1-169) proteins were mixed and diluted with a buffer (1×TBS, 0.1 mM TCEP) to prepare individual 1 μM protein solutions. A 10 mM test compound was diluted tenfold with DMSO to make a 1 mM solution, and then diluted fivefold with DMSO to make a 200 μM solution. The 200 μM solution was further diluted fivefold to make a 40 μM solution. When the final compound concentration was […], 1 μL of a 200 μM test compound was added to 19 μL of a 1 μM protein solution. When the final compound concentration was 2 μM, 1 μL of a 40 μM test compound was added to 19 μL of a 1 μM protein solution. The mixtures were stored in an incubator at 25° C. for 2 hours, and 80 μL of a 1×TBS solution containing 0.2% formic acid was added thereto to end the reaction, followed by LC-MS measurement. LC-MS measurement was performed using Xevo G2-S Q-Tof manufactured by Waters, and reverse-phase chromatography was performed with a desalting column. A mass spectrum of positive ions was obtained by electrospray. For a mass spectrum, a spectrum of a polyvalent ion was collectively converted to a molecular weight by using OpenLynx software by the MaxEnt technique, and a compound binding rate was obtained from the ratio of a signal intensity that corresponds to the molecular weight of a protein to a signal intensity that corresponds to the molecular weight of a compound binding to the protein.
By obtaining the compound binding rate for wt K-Ras4B (1-169) and the compound binding rate for G12C K-Ras4B (1-169) at the same time, information of the selectivity for G12C K-Ras4B (1-169) was obtained at the same time.
The test compounds were measured at their final compound concentration of 2 μM. […] Almost none of the compounds of the disclosure bound to wt K-Ras4B (1-169). The “binding rate” (%) for each of wt K-Ras4B (1-169) and G12C K-Ras4B (1-169) refers to the ratio of the signal intensity of bound forms to the sum of the signal intensity of non-bound forms and the signal intensity of bound forms.

[2] = target: T2, KRAS G12C (Homo sapiens, UniProt P01116, G12C); assay: Inhibitory activity on the KRAS G12C nucleotide (GDP-GTP) exchange reaction; format: biochemical; details: Bodipy FL GDP-bound KRAS G12C 25 nM; preincubation at 25° C. for 4 hours; SOS1 100 nM, GppNHp 1 μM, reaction for 30 minutes
T2 construct: KRAS G12C (amino acid region: 1-169)
In short: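 Bodipy FL-GDP-loaded KRAS G12C (aa 1-169, 25 nM) preincubated with compound 4 h at 25 °C in pH 7.5 Tris buffer, 5% DMSO; exchange started with SOS1 (aa 564-1049, 100 nM) and 1 μM GppNHp for 30 min. Fluorescence change (ex 485/em 520 nm) normalized to DMSO and no-GppNHp controls; IC50 calculated.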

[3] = target: G12C mutant of inactive KRAS (GDP) (Homo sapiens, UniProt P01116, G12C); details: WO 2014/152588 and Cancer Discov. 6 (3), 316-29, 2016; cited from earlier work
[4] = system: cancer cells with KRAS G12C mutation; details: WO 2014/152588 and Cancer Discov. 6 (3), 316-29, 2016; cited from earlier work
[5] = system: tumor-bearing mice expressing KRAS G12C mutation; details: WO 2015/054572 and Cell. 172 (3), 578-89, 2018; cited from earlier work
[6] = system: NCI-H358 cells; assay: Growth inhibition activity on KRAS-G12C mutant cell line (NCI-H358) (in vitro); format: cell-based; details: Homo sapiens, 72 h, 3-day culture in the presence of the compound, CellTiter-Glo2.0
Description: Test Example 3: A Measurement Test of Growth Inhibition Activity on KRAS-G12C Mutant Cell Line (NCI-H358) (In Vitro) NCI-H358 cells (ATCC, Cat#: CRL-5807), which are a KRAS-G12C mutant human lung cancer cell line, were suspended in a 10% fetal bovine serum-containing RPMI1640 medium (manufactured by Fujifilm Wako Pure Chemical Corporation.). The cell suspension was seeded into each well of a 384-well flat-bottom microplate and cultured in an incubator containing 5% CO2 gas at 37° C. for 1 day. The test compound was dissolved in DMSO and diluted with DMSO to give a concentration 500 times the final concentration. The solution of the test compound in DMSO was diluted with the medium used for suspending cells and added to each well of the cell-culture plate to give a DMSO final concentration of 0.2%, followed by culture in an incubator containing 5% CO2 gas at 37° C. for another 3 days. The cell count after 3-day culture in the presence of the compound was measured using CellTiter-Glo2.0 (manufactured by Promega Corporation) in accordance with the protocol recommended by Promega Corporation. The growth inhibition rate was calculated from the following equation, and the concentration of the test compound at which 50% inhibition was achieved (IC50 (nM)) was determined. […] Growth Inhibition Rate (%)=(C−T)/(C)×100 T: the emission intensity in a well into which a test compound was added. C: the emission intensity in a well into which a test compound was not added.

SMILES: C=CC(=O)N1C[C@@H](NC(=O)c2c(C)nc(CNc3n[nH]c4cc(Cl)c(C(C)(C)C)cc34)n2C)[C@H]1C (relative stereo) [Example 52, N-((2R *, 3R*)-1-acryloyl-2-methylazetidin-3-yl)-2-(((5-(tert-butyl)-6-chloro-1H-indazol-3-yl)amino)methyl)-1,4-dimethyl-1H-imidazole-5-carboxamide]
- binding rate for G12C K-Ras4B (1-169) [1]: B (a binding rate of 60% or more and less than 80% is rated “B,”)
- IC50 [2]: 38 nM

SMILES: C=CC(=O)N1CC(N2CCN(C(=O)CNc3cc(C4(C)CC4)c(Cl)cc3O)CC2)C1 [ARS-853]
- binding to KRAS G12C [3]: binds to the cysteine of the G12C mutant of inactive KRAS (GDP)
- apoptosis induction [4]: inducing apoptosis

SMILES: C=CC(=O)N1CCN(c2ncnc3c(F)c(-c4c(O)cccc4F)c(Cl)cc23)CC1 [ARS-1620]
- antitumor action [5]: exerts antitumor action

SMILES: C=CC(=O)N1CC(NC(=O)c2c(C(F)F)nc(CNc3n[nH]c4cc(Cl)c(C(C)(C)C)cc34)n2C2CCN(C(C)C)C2)C1 (stereo not shown) [Example 93, N-(1-acryloylazetidin-3-yl)-2-(((5-(tert-butyl)-6-chloro-1H-indazol-3-yl)amino)methyl)-4-(difluoromethyl)-1-(1-isopropylpyrrolidin-3-yl)-1H-imidazole-5-carboxamide formate]
- binding rate for G12C K-Ras4B (1-169) [1]: A (a binding rate of 80% or more is rated “A,”)
- IC50 [2]: 6 nM

SMILES: C=CC(=O)N1CC(NC(=O)c2c(Cl)nc(CNc3n[nH]c4cc(Cl)c(C(C)(C)C)cc34)n2[C@@H]2CCN(CC(F)F)C2)C1 [Example 113, (R)-N-(1-acryloylazetidin-3-yl)-2-(((5-(tert-butyl)-6-chloro-1H-indazol-3-yl)amino)methyl)-4-chloro-1-(1-(2,2-difluoroethyl)pyrrolidin-3-yl)-1H-imidazole-5-carboxamide]
- IC50 [2]: 5 nM
- IC50 [6]: 22 nM

SMILES: C=CC(=O)N1CC(NC(=O)c2c(Cl)nc(CNc3n[nH]c4cc(Cl)c(C(C)(C)C)cc34)n2[C@H]2CCN(CC(F)F)C2)C1 [Example 115, (S)-N-(1-acryloylazetidin-3-yl)-2-(((5-(tert-butyl)-6-chloro-1H-indazol-3-yl)amino)methyl)-4-chloro-1-(1-(2,2-difluoroethyl)pyrrolidin-3-yl)-1H-imidazole-5-carboxamide]
- IC50 [2]: 7 nM
- IC50 [6]: 56 nM

SMILES: C=CCN1CC[C@@H](n2c(CNc3n[nH]c4cc(Cl)c(C(C)(C)C)cc34)nc(Cl)c2C(=O)NC2CN(C(=O)C=C)C2)C1 [Example 123, (R)-N-(1-acryloylazetidin-3-yl)-1-(1-allylpyrrolidin-3-yl)-2-(((5-(tert-butyl)-6-chloro-1H-indazol-3-yl)amino)methyl)-4-chloro-1H-imidazole-5-carboxamide]
- IC50 [2]: 9 nM

SMILES: C=CC(=O)N1CC(NC(=O)c2c(Cl)nc(CNc3n[nH]c4cc(Cl)c(C(C)(C)C)cc34)n2[C@@H]2CCN(c3ccccn3)C2)C1 [Example 124, (R)-N-(1-acryloylazetidin-3-yl)-2-(((5-(tert-butyl)-6-chloro-1H-indazol-3-yl)amino)methyl)-4-chloro-1-(1-(pyridin-2-yl)pyrrolidin-3-yl)-1H-imidazole-5-carboxamide]
- IC50 [2]: 6 nM

SMILES: C=CC(=O)N1CC(NC(=O)c2c(Cl)nc(CNc3n[nH]c4cc(Cl)c(C(C)(C)C)cc34)n2[C@@H]2CCN(CC(F)F)[C@H]2C)C1 [Example 125, N-(1-acryloylazetidin-3-yl)-2-(((5-(tert-butyl)-6-chloro-1H-indazol-3-yl)amino)methyl)-4-chloro-1-((2S,3R)-1-(2,2-difluoroethyl)-2-methylpyrrolidin-3-yl)-1H-imidazole-5-carboxamide]
- IC50 [2]: 13 nM

SMILES: C=CC(=O)N1CC(NC(=O)c2c(Cl)nc(CNc3n[nH]c4cc(Cl)c(C(C)(C)C)cc34)n2[C@@H]2C[C@@H](C)N(CC(F)F)C2)C1 [Example 126, N-(1-acryloylazetidin-3-yl)-2-(((5-(tert-butyl)-6-chloro-1H-indazol-3-yl)amino)methyl)-4-chloro-1-((3R,5R)-1-(2,2-difluoroethyl)-5-methylpyrrolidin-3-yl)-1H-imidazole-5-carboxamide]
- IC50 [2]: 4 nM

SMILES: C=CC(=O)N1CC(NC(=O)c2cnc(CNc3n[nH]c4cc(Cl)c(Br)cc34)n2C)C1 [Reference Example 1, N-(1-acryloylazetidin-3-yl)-2-(((5-bromo-6-chloro-1H-indazol-3-yl)amino)methyl)-1-methyl-1H-imidazole-5-carboxamide, reference compound]
- binding rate for G12C K-Ras4B (1-169) [1]: E (a binding rate of less than 20% is rated “E.”)
- IC50 [2]: > 10000 nM
- IC50 [6]: > 10000 nM

SMILES: C=CC(=O)N1CC(NC(=O)c2ccc(CNc3n[nH]c4cc(Cl)c(C(C)(C)C)cc34)o2)C1 [Reference Example 2, N-(1-acryloylazetidin-3-yl)-5-(((5-(tert-butyl)-6-chloro-1H-indazol-3-yl)amino)methyl)furan-2-carboxamide, reference compound]
- binding rate for G12C K-Ras4B (1-169) [1]: E (a binding rate of less than 20% is rated “E.”)
- IC50 [2]: > 10000 nM

SMILES: C=CC(=O)N1CC(NC(=O)c2c(-c3ccccc3)nc(CNc3n[nH]c4cc(Cl)c(C(C)(C)C)cc34)n2C)C1 [Reference Example 3, N-(1-acryloylazetidin-3-yl)-2-(((5-(tert-butyl)-6-chloro-1H-indazol-3-yl)amino)methyl)-1-methyl-4-phenyl-1H-imidazole-5-carboxamide, reference compound]
- binding rate for G12C K-Ras4B (1-169) [1]: E (a binding rate of less than 20% is rated “E.”)
- IC50 [2]: > 10000 nM

From patent publication US20230181536A1, “ANTICANCER COMBINATION THERAPY WITH N-(1-ACRYLOYL-AZETIDIN-3-YL)-2-((1H-INDAZOL-3-YL)AMINO)METHYL)-1H-IMIDAZOLE-5-CARBOXAMIDE INHIBITOR OF KRAS-G12C” (TAIHO PHARMACEUTICAL CO., LTD., priority 2020, published 2023)
